Measured values published in patent US20210221794A1, “ISATIN DERIVATIVES” (KING SAUD UNIVERSITY, priority 2020, published 2021).

Columns and labels:
Assay type in all cases: cell-based, Human
Settings in all cases: concentration 10-M [sic], 2 days after addition
[1] = test system: Renal Cancer cells (UO-31); assay: NCI-60 one-dose screen, Renal Cancer cells (UO-31)
Description: (§1) Anticancer activities of the exemplary isatin derivatives were tested by the NIH National Cancer Institutes (NCI), with results summarized in FIGS. 2A-2B. The anticancer activity was tested by NCI, division of cancer treatment and diagnosis, according to the NCI-60 Human Tumor Cell Lines Screen, one-dose screen (https://dtp.cancer.gov/discovery_development/nci-60/methodology.htm). This screening allows for qualified synthesized chemicals to be subjected to an anticancer test against 60 different cancer cell lines. Briefly, exemplary T1 or T2 was dissolved in DMSO:Glycerol, 9:1, at 4 mmol and kept frozen prior to use. For inoculation, a 96 well microtiter was used for the study of different cell lines. Based on the doubling time for each cell line, the well density varied. The plates were incubated at 37° C., 5% CO2, 95% air and 100% relative humidity for 1 day. The exemplary T1 or T2 or a control were added to the plates at a concentration of 10-M. After 2 more days, the plates were fixed and stained to identify growth inhibition relative to cells without drug treatment. Anti-proliferative activity was determined based on careful analysis of historical DTP screening data. Cell death and net growth inhibition were determined based on a time zero control. A value of 100 indicates no growth inhibition. A value of 40 indicates 60% growth inhibition. […]

[2] = test system: Renal Cancer cells (CAKI-1); assay: NCI-60 one-dose screen, Renal Cancer cells (CAKI-1)
Description: as §1

[3] = test system: Ovarian Cancer cells (IGROV1); assay: NCI-60 one-dose screen, Ovarian Cancer cells (IGROV1)
Description: as §1

[4] = test system: Breast Cancer cells (HS 578T); assay: NCI-60 one-dose screen, Breast Cancer cells (HS 578T)
Description: as §1

[5] = test system: Colon Cancer cells (KM12); assay: NCI-60 one-dose screen, Colon Cancer cells (KM12)
Description: as §1

[6] = test system: Non-Small Cell Lung Cancer cells (EKVX); assay: NCI-60 one-dose screen, Non-Small Cell Lung Cancer cells (EKVX)
Description: as §1

| Structure (SMILES) | reduction compared to control (anticancer activity) [1] [%] | reduction compared to control (anticancer activity) [2] [%] | reduction compared to control (anticancer activity) [3] [%] | reduction compared to control (anticancer activity) [4] [%] | reduction compared to control (anticancer activity) [5] [%] | reduction compared to control (anticancer activity) [6] [%] |
| --- | --- | --- | --- | --- | --- | --- |
| O=C1Nc2ccccc2C1=NN=Cc1c[nH]c2ccccc12 [T1] | ~74 | ~83 | ~65 | ~85 | ~72 | ~79 |
| O=C1Nc2ccc(Cl)cc2C1=NN=Cc1c[nH]c2ccccc12 [T2] | ~59 | ~71 |  | ~78 |  | ~77 |
